According to US6914045B2, “Glycopeptide antibiotics” (Wyeth Holdings Corporation, priority 2001, dated 2005):
In brackets after ≈: the same amount, converted by molar mass.

Legend:
Experiment in all cases: in vitro antibacterial evaluation, MIC by broth dilution
Format in all cases: cell-based
Enterococcus sp. = conditions: broth dilution, 18 hours at 35° C.
Procedure, shortened: (§1)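 Step 1: dilute antibiotic across 64-0.06 μg/mL in Muller-Hinton II […]. Step 2: inoculate at 5×10^5 CFU/mL.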

Staphylococcus sp. = conditions: broth dilution, 18 hours at 35° C.
Procedure, shortened: as §1

Streptococcus sp. = conditions: broth dilution, 18 hours at 35° C.
Procedure, shortened: as §1

Escherichia coli = conditions: 18 hours at 35° C.

MIC Enterococcus avium (GC 4558) (Enterococcus sp.): 0.5 µg/mL (≈ 0.35 µM) | MIC Enterococcus faecalis (ATCC 29212) (Enterococcus sp.): 0.5 µg/mL (≈ 0.35 µM) | MIC Enterococcus faecalis (GC 2242) (Enterococcus sp.): 1 µg/mL (≈ 0.7 µM) | MIC Enterococcus faecalis (GC 2691) (Enterococcus sp.): 1 µg/mL (≈ 0.7 µM) | MIC Enterococcus faecalis (GC 3059) (Enterococcus sp.): 1 µg/mL (≈ 0.7 µM) | MIC Enterococcus faecalis (GC 4552) (Enterococcus sp.): 1 µg/mL (≈ 0.7 µM) | MIC Enterococcus faecalis (GC 4553) (Enterococcus sp.): 0.5 µg/mL (≈ 0.35 µM) | MIC Enterococcus faecalis (GC 4554) (Enterococcus sp.): 1 µg/mL (≈ 0.7 µM) | MIC Enterococcus faecalis (GC 6189) (Enterococcus sp.): 1 µg/mL (≈ 0.7 µM) | MIC Enterococcus faecium (GC 2243) (Enterococcus sp.): 0.5 µg/mL (≈ 0.35 µM) | MIC Enterococcus faecium (GC 4556) (Enterococcus sp.): 1 µg/mL (≈ 0.7 µM) | MIC Enterococcus faecium (GC 4557) (Enterococcus sp.): 0.5 µg/mL (≈ 0.35 µM) | MIC Enterococcus faecalis (ATCC 29212) (Enterococcus sp.; inoculum 5×10^5 CFU/mL, strain ATCC 29212): 0.5 µg/mL (≈ 0.35 µM) | MIC Enterococcus faecalis (GC 2242) (Enterococcus sp.; inoculum 5×10^5 CFU/mL, strain GC 2242): 1 µg/mL (≈ 0.7 µM) | MIC Enterococcus faecium (GC 2243) (Enterococcus sp.; inoculum 5×10^5 CFU/mL, strain GC 2243): 0.5 µg/mL (≈ 0.35 µM) | MIC Enterococcus faecalis (GC 2691) (Enterococcus sp.; inoculum 5×10^5 CFU/mL, strain GC 2691): 1 µg/mL (≈ 0.7 µM) | MIC Enterococcus faecalis (GC 3059) (Enterococcus sp.; inoculum 5×10^5 CFU/mL, strain GC 3059): 1 µg/mL (≈ 0.7 µM) | MIC Enterococcus faecalis (GC 4552) (Enterococcus sp.; inoculum 5×10^5 CFU/mL, strain GC 4552): 1 µg/mL (≈ 0.7 µM) | MIC Enterococcus faecalis (GC 4553) (Enterococcus sp.; inoculum 5×10^5 CFU/mL, strain GC 4553): 0.5 µg/mL (≈ 0.35 µM) | MIC Enterococcus faecalis (GC 4554) (Enterococcus sp.; inoculum 5×10^5 CFU/mL, strain GC 4554): 1 µg/mL (≈ 0.7 µM) | MIC Enterococcus faecium (GC 4556) (Enterococcus sp.; inoculum 5×10^5 CFU/mL, strain GC 4556): 1 µg/mL (≈ 0.7 µM) | MIC Enterococcus faecium (GC 4557) (Enterococcus sp.; inoculum 5×10^5 CFU/mL, strain GC 4557): 0.5 µg/mL (≈ 0.35 µM) | MIC Enterococcus avium (GC 4558) (Enterococcus sp.; inoculum 5×10^5 CFU/mL, strain GC 4558): 0.5 µg/mL (≈ 0.35 µM) | MIC Enterococcus faecalis (GC 6189) (Enterococcus sp.; inoculum 5×10^5 CFU/mL, strain GC 6189): 1 µg/mL (≈ 0.7 µM) | MIC Staphylococcus aureus (ATCC 29213) (Staphylococcus sp.; strain ATCC 29213): 0.5 µg/mL (≈ 0.35 µM) | MIC Staphylococcus aureus (GC 1131) (Staphylococcus sp.; strain GC 1131): 0.5 µg/mL (≈ 0.35 µM) | MIC Staphylococcus aureus (GC 3051) (Staphylococcus sp.; strain GC 3051): 0.5 µg/mL (≈ 0.35 µM) | MIC Staphylococcus aureus (GC 3053) (Staphylococcus sp.; strain GC 3053): 1 µg/mL (≈ 0.7 µM) | MIC Staphylococcus aureus (GC 4541) (Staphylococcus sp.; strain GC 4541): 0.5 µg/mL (≈ 0.35 µM) | MIC Staphylococcus aureus (GC 4542) (Staphylococcus sp.; strain GC 4542): 0.5 µg/mL (≈ 0.35 µM) | MIC Staphylococcus aureus-SMITH (GC 4543) (Staphylococcus sp.; strain GC 4543): <0.12 µg/mL | MIC Staphylococcus aureus (GC 4544) (Staphylococcus sp.; strain GC 4544): 0.5 µg/mL (≈ 0.35 µM) | MIC Staphylococcus aureus (GC 4545) (Staphylococcus sp.; strain GC 4545): 1 µg/mL (≈ 0.7 µM) | MIC Coagulase Negative Staphylococcus (GC 4547) (Staphylococcus sp.; strain GC 4547): 0.5 µg/mL (≈ 0.35 µM) | MIC Coagulase Negative Staphylococcus (GC 4548) (Staphylococcus sp.; strain GC 4548): 0.5 µg/mL (≈ 0.35 µM) | MIC Coagulase Negative Staphylococcus (GC 4549) (Staphylococcus sp.; strain GC 4549): <0.12 µg/mL | MIC Coagulase Negative Staphylococcus (GC 4551) (Staphylococcus sp.; strain GC 4551): 0.5 µg/mL (≈ 0.35 µM) | MIC Streptococcus agalactiae (GC 4564) (Streptococcus sp.): <0.12 µg/mL | MIC Streptococcus pneumoniae (ATCC 6301) (Streptococcus sp.): <0.12 µg/mL | MIC Streptococcus pneumoniae (GC 1894) (Streptococcus sp.): <0.12 µg/mL | MIC Streptococcus pneumoniae (GC 4565) (Streptococcus sp.): <0.12 µg/mL | MIC Streptococcus pyogenes (GC 4563) (Streptococcus sp.): <0.12 µg/mL | MIC Streptococcus pneumoniae (ATCC 6301) (Streptococcus sp.; inoculum 5×10^5 CFU/mL, strain ATCC 6301): <0.12 µg/mL | MIC Streptococcus pneumoniae (GC 1894) (Streptococcus sp.; inoculum 5×10^5 CFU/mL, strain GC 1894): <0.12 µg/mL | MIC Streptococcus pyogenes (GC 4563) (Streptococcus sp.; inoculum 5×10^5 CFU/mL, strain GC 4563): <0.12 µg/mL | MIC Streptococcus agalactiae (GC 4564) (Streptococcus sp.; inoculum 5×10^5 CFU/mL, strain GC 4564): <0.12 µg/mL | MIC Streptococcus pneumoniae (GC 4565) (Streptococcus sp.; inoculum 5×10^5 CFU/mL, strain GC 4565): <0.12 µg/mL | MIC Escherichia coli (ATCC 25922) (Escherichia coli): 32 µg/mL (≈ 22.4 µM) | MIC Escherichia coli (GC 4559) (Escherichia coli): 32 µg/mL (≈ 22.4 µM) | MIC Escherichia coli (GC 4560) (Escherichia coli): 1 µg/mL (≈ 0.7 µM)
SMILES: CC(c1ccccc1)C1NC(=O)CNC(=O)C(CO)NC(=O)C(C(O)C2CNC(=N)N2C2OC(CO)C(O)C(O)C2O)NC(=O)C(C(O)C2CNC(=N)N2)NC(=O)C(Cc2ccc(OC3OC(CO)C(OC4OC5COC6(CC7CCC6(C)C7(C)C)OC5C(O)C4O)C(O)C3O)cc2)NC1=O (stereo not drawn) [Example 215]
MIC Staphylococcus haemolyticus (GC 4546) (Staphylococcus sp.; strain GC 4546): 0.5 µg/mL (≈ 0.35 µM)
